Entries after “also recorded” stand apart in the source; their conditions may differ.
Key:
NK92 cells [1] = experiment: Lytic granule convergence, fixed cell confocal microscopy (granule to MTOC distance); assay type: cell-based, human; details: NK92 conjugated with K562 target cells; ciliobrevin D 100 μM vs vehicle
Text: (§1) In previous studies, it was shown that granule convergence is dynein-dependent (Mentlik et al., 2010). To further characterize this, regarding the role for convergence in promoting killing efficiency and protecting bystanders, a small molecule dynein inhibitor ciliobrevin D (Firestone et al., 2012) was used to try and block the convergence of lytic granules to the MTOC from their dispersed localization in the cytoplasm. This would allow us to manipulate granule trafficking via blocking the motor protein function, instead of altering activating signal input. YTS, NK92 or eNK cells were treated with either ciliobrevin D or vehicle and conjugated with their respective target cells. […] As a separate measure of granule dispersion, the standard deviation of the granule to MTOC distance was calculated to show the degree of scatter of individual lytic granules. […] CD107a staining was additionally performed to test whether ciliobrevin D treatment affected the exocytosis of lytic granules; the proportion of eNK cells that degranulated after treatment with ciliobrevin D increased (FIG. 13A), whereas in the NK cell lines it decreased (FIG. 13B-13C). In all cases, however, degranulation still occurred in the presence of ciliobrevin D. […]
(§2) Raw image sequences were analyzed using Volocity software. For lytic granules, the centroid of individual lytic granule was designated automatically based on the fluorescence intensity of the corresponding staining (LysoTracker Red or perforin) (Mentlik et al., 2010). For MTOC, in fixed-cell confocal experiments, the point with the highest fluorescence intensity of α-tubulin staining was denoted as the localization of MTOC; in live-cell experiments, the geometric centroid of all the lytic granules in the cell was used to provide a measure of proximity of lytic granule regions. Lytic granule convergence to the MTOC or to the centroid of all granules was measured as previously described (Mentlik et al., 2010). […]

YTS cells [2] = experiment: as above; assay type: cell-based, human; details: YTS conjugated with 721.221 target cells; ciliobrevin D 100 μM vs vehicle
Text: as §1, §2

eNK cells [3] = experiment: as above; assay type: cell-based, human; details: eNK conjugated with K562 target cells; ciliobrevin D 100 μM vs vehicle
Text: as §1, §2

CD19 CAR T cell = experiment: Live cell confocal microscopy of CD19 CAR T cell conjugated with a Daoy-CD19 target cell; assay type: cell-based
Experimental: FIG. 25. […] Live cell confocal microscopy of a ciliobrevin D-treated CD19 CAR T cell conjugated with a Daoy-CD19 target cell. Cell mixtures were imaged every 90 sec for 60 min. Time point 1 (T1) represents the time when imaging started. Target cell death occurred rapidly at T5 (7.5 min) as indicated by uptake of SYTOX Blue viability dye and loss of adherence. […] Red, LysoTracker Red (lytic granules); blue, SYTOX Blue viability dye; green, CD19 CAR.
Similarly, compared to DMSO, ciliobrevin D-treated CD19 CAR NK cells lyse approximately 24%, 39% and 40% more bystander cells at the concentration of 12.5, 25 and 50 μM, respectively (FIG. 22). […] FIG. 23 and FIG. 24 are time-lapse images of videos of control ([…]) and ciliobrevin D-treated ([…]) CD19 CAR T cells. […] In the control group, however, lytic granules converge immediately upon interacting with the target cell and remain tightly clustered until target is killed by the CD19 CAR T cell as indicated by uptake of the SYTOX Blue viability dye.

NK92 cells [4] = experiment: Flow cytometry-based degranulation assay (CD107a); assay type: cell-based, human; details: NK92 with K562 targets, 2 hours, vs DMSO
Experimental: (§3) FIGS. 13A-13E. The effect of ciliobrevin D on degranulation and the increase of bystander killing by NK cells. Flow cytometry-based degranulation assay of NK cells treated with ciliobrevin D or DMSO as vehicle control. 721.221 cells were used as targets for YTS cells and K562 cells were used as targets for NK92 and eNK cells. DMSO or ciliobrevin D-treated NK cells were mixed with their respective target cells and co-cultured at 37° C. for 2 hours in the presence of anti-CD107a antibody, GolgiStop (BD) and analyzed using flow cytometry. Numbers in the representative flow cytometry plots indicate the percentage of CD107a positive eNK (13A), YTS (13B), or NK92 (13C) cells. Standard 4-hour 51Cr cytotoxicity assay of NK cells treated with ciliobrevin D (100 μM) or DMSO control. NK resistant Raji cells were used as innocent bystander cells. […] Bystander killing of Raji cells by YTS (13D, red) and NK92 (13E, red) cells both increased with ciliobrevin D treatment. Representative experiments from three independent experiments for YTS and NK92 cells were shown.
(§4) YTS-CD16, NK92-CD16 and eNK cells were labeled with CellTrace CFSE for 10 min at room temperature. S2 and S2-IC1 cells were pre-incubated with anti-S2 polyclonal IgG antibody at a final dilution of 1:1000 for 30 min at room temperature and washed three times. S2, S2-IgG, S2-IC1 and S2-IC1-IgG cells were then labeled with cell proliferation dye eFluor 670 for 5 min at room temperature. […] and 2×10^5 target cells were mixed in 200 μl complete R10 and incubated for 2 hours at 37° C. in the presence of anti-CD107a antibody and GolgiStop (BD), fixed with 1% paraformaldehyde in PBS and analyzed as described in flow-based conjugation assay.
(§5) Where applicable, YTS, NK92 and eNK cells were pretreated with […] ciliobrevin D (Millipore) for 30 min then washed. DMSO was used as the vehicle control for all inhibitor experiments. The inhibitor was also added into the co-culture with target cells.

YTS cells [5] = experiment: Flow cytometry-based degranulation assay (CD107a); assay type: cell-based, human; details: YTS with 721.221 targets, 2 hours, vs DMSO
Experimental: as §3, §4, §5

eNK cells [6] = experiment: Flow cytometry-based degranulation assay (CD107a); assay type: cell-based, human; details: eNK with K562 targets, 2 hours, vs DMSO
Experimental: as §3, §4, §5

**Q.** With `N#CC(C(=O)c1ccc(Cl)cc1Cl)=C1NC(=O)c2ccc(Cl)cc2N1` [ciliobrevin D, 2-(7-chloro-4-oxo-3,4-dihydroquinazolin-2(1H)-ylidene)-3-(2,4-dichlorophenyl)-3-oxopropanenitrile] as the molecule, how does the “lytic granule convergence as determined by mean granule to MTOC distance” value (from here on “lytic granule convergence as determined”) (NK92 cells [1]) read?
**A.** The value was “blocked lytic granule convergence”.

**Q.** And the “lytic granule convergence as determined” value (YTS cells [2])?
**A.** The value was “blocked lytic granule convergence”.

**Q.** What about the “lytic granule convergence as determined” value (eNK cells [3]) of the same molecule?
**A.** Its value is “blocked lytic granule convergence”.

**Q.** What about the “time of target cell death (SYTOX Blue uptake, loss of adherence)” value (CD19 CAR T cell; ciliobrevin D-treated CD19 CAR T cell, Daoy-CD19 target) of the same molecule?
**A.** Its value is 7.5 min.

**Q.** What about the “lytic granule positioning during conjugation and killing” value (CD19 CAR T cell; ciliobrevin D-treated, imaged every 90 sec for 60 min) of the same molecule?
**A.** Its value is “dispersedly localized lytic granules throughout the video; also recorded: remained dispersed throughout the video”.

**Q.** What about the “proportion of cells that degranulated (CD107a positive)” value (from here on “proportion of cells that degranulated”) (NK92 cells [4]) of the same molecule?
**A.** Its value is “decreased”.

**Q.** And the “proportion of cells that degranulated” value (YTS cells [5])?
**A.** Its value is “decreased”.

**Q.** And the “proportion of cells that degranulated” value (eNK cells [6])?
**A.** The value was “increased”.

Source: patent US20200016200A1, “MODULATING CYTOTOXIC CELL LYTIC GRANULE POSITIONING TO PROMOTE DIFFUSE KILLING IN CELLULAR THERAPIES” (Baylor College of Medicine, priority 2016, published 2020)
